Eight molecules from patent US12343346B2, “Salts and solid forms of (S)-3-(4-((4-(morpholinomethyl)benzyl)oxy)-1-oxoisoindolin-2-yl)piperidine-2,6-dione and compositions comprising and methods of using the same” (Celgene Corporation, priority 2012, dated 2025) can be followed below.

“Also recorded” adds a separate entry of the source. Where a name gives a salt, the structure may show the parent alone. Read-outs that look alike come from different tables or passages of the source.

A short description of data set [1]: Stability and form transfer experiments of HCl salt forms (XRPD result). It is filed as physicochemical. The procedure:
(§1) All of the solid samples generated in the polymorph screen were analyzed by XRPD. XRPD analysis was conducted on a PANalytical Empyrean or a Thermo ARL X'TRA X-ray powder diffractometer using Cu Kα radiation at 1.54 Å.
Further form conversion experiments were performed to determine interconversion among solid forms. Form conversion was also observed during further characterization of the solid forms.

A short description of data set [2]: Competitive slurry / Form E and Form F transformation. It is filed as physicochemical.
Data set [3] can be described thus: Equilibration (slurry) of Form A at room temperature and 50° C., form by XRPD. It is filed as physicochemical. The procedure:
Equilibration and evaporation experiments were carried out by adding an excess of the HCl salt to up to 2 mL of a test solvent. The resulting mixture was agitated for at least 24 hours at room temperature and 50° C. separately. Upon reaching equilibrium, the saturated supernatant solution was removed, filtered using 0.45 μm PTFE filters and allowed to evaporate in an open vial under nitrogen at room temperature and 50° C., respectively. The solid resulting from the equilibration was isolated and air-dried before analysis.
as §1

Data set [4] in a line: Compression test (2000-psi). The data set is classed as physicochemical. The settings on record: 2000-psi pressure for about 1 minute. The procedure: The stability of Form A was further characterized by compression test and form transfer experiments. Upon application of 2000-psi pressure for about 1 minute, the material was still Form A (FIG. 43).
Data set [5] can be described thus: Dynamic vapor sorption (DVS) moisture sorption/desorption. The data set is classed as physicochemical. The procedure: Hygroscopicity was determined on a Surface Measurement Systems DVS. […] The relative humidity was increased from 0% to 90% RH at 10% RH step, then at 95% RH. The relative humidity was then decreased in a similar manner to accomplish a full adsorption/desorption cycle. For hydrated forms, the analysis started at 50% RH and increased to 90% RH at 10% RH step. The relative humidity was then decreased in a similar manner to 0% RH followed by increasing to 50% RH.

Data set [6] in a line: Heating of solid form followed by XRPD. It is filed as physicochemical. The procedure:
Form C was obtained from anti-solvent recrystallization in DMSO/n-BuOH, DMSO/MTBE or DMSO/BuOAc. DSC and TGA thermograms of Form C are shown in FIG. 52 and FIG. 53, respectively. The TGA weight loss of 1.6 and 15.1 wt % corresponded to broad DSC endotherm around 50° C. and endotherms around 142-146° C., respectively, and can be attributed to loss of solvent/water in Form C. The DSC thermogram with an onset temperature of 251.8° C. was due to final melt/decomposition. […] The ^1H-NMR spectrum of Form C was consistent with Compound I structure with approximately one molar equivalent (or ˜13.9 wt %) of DMSO solvent (FIG. 55). Without being limited by any particular theory, Form C is a DMSO solvate. […]

With `O=C1CCC(N2Cc3c(OCc4ccc(CN5CCOCC5)cc4)cccc3C2=O)C(=O)N1` (racemic) [racemic Compound (I) hydrochloride methanol solvate], the figures for the “Form conversion upon exposure to ambient moisture” value in data set [1] and in data set [1] (listed as MeOH solvate of HCl salt of racemic Compound (I)) were “converted to racemic Compound (I) hydrochloride hydrate” and “converts to a hydrate of HCl salt of racemic Compound (I)”, respectively.

As to `Cl.O=C1CC[C@H](N2Cc3c(OCc4ccc(CN5CCOCC5)cc4)cccc3C2=O)C(=O)N1` [Form A + F], the “XRPD Result” value in data set [2] (IPA/water (50/50), 3 days at RT) is reported as “Form A”; in data set [2] (IPA/water (65/35), 3 days at RT) it was “Form A”; in data set [2] (IPA/water (80/20), 6 days at RT), “Form A”; in data set [2] (IPA/water (95/5), 6 days at RT), “Form A”; in data set [2] (MeOAc saturated with water, 3 days at RT), “Form A”; in data set [2] (Water, 3 days at RT), “Form A”.

Take `Cl.O=C1CC[C@H](N2Cc3c(OCc4ccc(CN5CCOCC5)cc4)cccc3C2=O)C(=O)N1` [Form A]: in data set [3] (MeCN/H2O (95:5), RT), the “Form by XRPD after equilibration” value is listed as “Form D”. For the same molecule, in data set [3] (non-aqueous solvents, 24 h of slurry), the “Form by XRPD after slurry” value is “Form A”. For the same molecule, in data set [4], the Form after compression result is “remains as the Form A crystal form; also recorded: still Form A”. Moreover, the “Hygroscopicity (in words, from DVS)” value in data set [5] is “slightly hygroscopic”. Further, the “XRPD Result after DVS (adsorption/desorption cycles)” value in data set [5] is “remains as the Form A crystal; also recorded: no change”. Further, the “DVS or other comments: water uptake” value in data set [5] (from 0 to 90% RH) was 1.8 wt % water uptake. In addition, the “Approximate Solubility” value reads like this: (Acetone, room temperature) less than 1000 µg/mL; (CH2Cl2, room temperature) less than 1000 µg/mL; (CH3CN, room temperature) less than 1000 µg/mL; (CH3CN/H2O (1:1), room temperature) greater than 50000 µg/mL; (DMSO, room temperature) greater than 50000 µg/mL; (EtOAc, room temperature) less than 1000 µg/mL. In addition, the “Approximate Solubility” value (EtOH, room temperature) was roughly 1000 µg/mL; the “Approximate Solubility” value (EtOH/H2O (1:1), room temperature) is greater than 50000 µg/mL; the “Approximate Solubility” value (H2O, room temperature) is greater than 50000 µg/mL; the “Approximate Solubility” value (Heptane, room temperature) was less than 1000 µg/mL; the “Approximate Solubility” value (IPA, room temperature) was roughly 1000 µg/mL; the “Approximate Solubility” value (MEK, room temperature) was less than 1000 µg/mL. Besides, the “Approximate Solubility” value runs as follows: (MTBE, room temperature) less than 1000 µg/mL; (MeOAc, room temperature) less than 1000 µg/mL; (MeOH, room temperature) roughly 10000 µg/mL; (THF, room temperature) less than 1000 µg/mL; (THF/H2O (1:1), room temperature) greater than 50000 µg/mL; (Toluene, room temperature) less than 1000 µg/mL. Also, the “Approximate Solubility” value (n-BuOH, room temperature) is less than 1000 µg/mL. Where the note is “in MeCN/water (1:1), EtOH/water (1:1), THE/water (1:1), and water”, the “Solubility (most soluble)” value is “greater than 50 mg/mL”. The “Solubility (in words)” value (in MeOH) is on record as “moderate solubility”. Also, under “in acetone, MeCN, n-BuOH, EtOH, IPA, EtOAc, MEK, DCM, MTBE, heptane, MeOAc, toluene and THF”, the “Solubility (low or very low)” value is no more than 1000 µg/mL. For the same molecule, in data set [2] (water and aqueous/organic (aqueous/IPA) mixtures, competitive slurry), the “Relative stability of forms (in words)” value was “more stable than hydrate forms”.

In the case of `Cl.O=C1CC[C@H](N2Cc3c(OCc4ccc(CN5CCOCC5)cc4)cccc3C2=O)C(=O)N1` [Form B], the “XRPD Result” value in data set [1] (Exposed to ambient air, 1 week at RT) is “Form A”; in data set [1] (IPA, 24 h at RT), “Form A”. The “Form conversion during exposure to ambient / ambient storage” value is reported as “converts to the Form A crystal form; also recorded: converted to Form A” in data set [1] and “Converts to Form A” in data set [1] (listed as B). Moreover, the “XRPD Result after DVS (adsorption/desorption cycles)” value in data set [5] was “Form A”.

On to `Cl.O=C1CC[C@H](N2Cc3c(OCc4ccc(CN5CCOCC5)cc4)cccc3C2=O)C(=O)N1` [Form C], for which the “XRPD pattern after heating” value in data set [6] (heated to 165° C.) is “converts to the Form A crystal form; also recorded: consistent with Form A”. The “Form conversion in IPA slurry” value in data set [1] is recorded as “convert to Form A”. Also, the “XRPD Result” value in data set [1] (IPA, 24 h at RT) was “Form A”; in data set [1] (MeOAc, 1 day at RT), “Form A”. Further, the “XRPD Result after DVS (adsorption/desorption cycles)” value in data set [5] is on record as “Form A”. Besides, the “Form conversion upon exposure to high humidity” value in data set [5] (higher than 70% RH in the DVS instrument) is on record as “converts to the Form A crystal form; also recorded: convert to Form A”.

Regarding `Cl.O=C1CC[C@H](N2Cc3c(OCc4ccc(CN5CCOCC5)cc4)cccc3C2=O)C(=O)N1` [Form E], the “XRPD pattern after heating” value is “remains as the Form E crystal form; also recorded: consistent with Form E” in data set [6] (heated to 120° C.) and “converts to an amorphous form; also recorded: amorphous pattern” in data set [6] (heated to 190° C.). For the same molecule, the “Form conversion in IPA slurry” value in data set [1] is listed as “converted to Form A”. Moreover, the “XRPD Result” value in data set [1] (IPA, 24 h at RT) was “Form A”; in data set [2] (IPA/water (40/60), Spontaneous, RT), “Form F”; in data set [2] (IPA/water (60/40), Spontaneous, RT), “Form F”; in data set [2] (IPA/water (80/20), Spontaneous, RT), “Form F”; in data set [2] (IPA/water (90/10), Spontaneous, RT) it was “Form F”; in data set [2] (IPA/water (95/5), Spontaneous, RT), “Form F”. In data set [5], the “Hygroscopicity (in words, from DVS)” value is “hygroscopic”. In addition, the “XRPD Result after DVS (adsorption/desorption cycles)” value in data set [5] is given as “converts to the Form F crystal form; also recorded: partially converted to Form F”. Besides, the “DVS or other comments: form conversion” value in data set [5] (during DVS experiment) is reported as “Converts to Form F”. Also, the “Form conversion in IPA/water mixtures” value in data set [2] (various IPA/water mixtures) is on record as “convert to Form F”.

For `Cl.O=C1CC[C@H](N2Cc3c(OCc4ccc(CN5CCOCC5)cc4)cccc3C2=O)C(=O)N1` [Form I], the “XRPD Result” value in data set [1] (MeOAc, 1 minute at RT) is reported as “Form A”. Also, in data set [1] (listed as I), the “Form conversion upon exposure to ambient humidity / ambient condition” value is given as “Converts to Form A”. For the same molecule, the “XRPD pattern after washing with MeOAc” value in data set [1] (washed with MeOAc) was “converts to the Form A crystal; also recorded: consistent with Form A”.

For `Cl.O=C1CC[C@H](N2Cc3c(OCc4ccc(CN5CCOCC5)cc4)cccc3C2=O)C(=O)N1` [Form K], the “Form conversion upon exposure to ambient humidity / ambient condition” value in data set [1] is reported as “converts to the Form F crystal; also recorded: convert to Form F”; in data set [1] (listed as K), “Converts to Form F”.
